Laboratory results from paper PMC9300616, “Grape seed proanthocyanidin extract inhibits DNA and protein damage and labile iron, enzyme, and cancer cell activities” (Scientific Reports, 2022).

Key:
[1] = test system: ferritin; assay: Labile iron inhibition assay (superoxide-dependent iron release from ferritin); format: biochemical; settings: for Labile Iron IC50: inhibition of iron release from ferritin, mean ± SD of three experiments
Description: The mixture was illuminated using a fluorescent lamp for 90 min at 25 °C. The labile iron content was measured as described by Ibrahim et al.[22].

[2] = biological target: mushroom tyrosinase; assay: Tyrosinase inhibition assay; format: biochemical; settings: mean ± SD of three experiments
Description: Tyrosinase inhibitory activity was measured as described by Habib et al.[17]. […] After 10 min of incubation at 37 °C, 1 mL of mushroom tyrosinase (50 units/mL, dissolved in 0.2 M phosphate buffer, pH 6.8), was added to the mixture. The absorbance was recorded after 10 min at 475 nm. A 50% ethanol solution was used as a blank, and 1 mL of deionized water was used as the control. % Tyrosinase inhibitory activity was calculated according to Eq. (1) as described above.

[3] = test system: Bovine Serum Albumin (BSA); assay: Protein oxidation induced by AAPH, SDS-PAGE; settings: for Fragmentation of BSA reduced by: AAPH 30 min
Description: Alkylperoxyl radical-induced oxidation of Bovine Serum Albumin (BSA) was performed as described by Habib et al.[17]. In brief, BSA (0.5 mg mL^−1) was incubated with AAPH (20 mM) in the presence or absence of different extracts in a shaking water bath at 37 °C for 30 min. A protein sample without AAPH was used as control. After treatment, protein samples were mixed with loading buffer and heated at 100 °C for 5 min. An aliquot of each sample was loaded and separated using 10% SDS-PAGE under reducing conditions. The free stained gels were imaged using a ChemiDoc MV gel documentation system (Bio-Rad, Hercules, CA, USA). To determine the amount of protein damage, band intensity was determined using the Image Lab 4.1 software (version 6.1.0 build 7) (Bio-Rad, Hercules, CA, USA). The optical density of each band was determined and standardized for the control group.

[4] = test system: pBR322 plasmid DNA; assay: DNA damage by free radicals (H2O2 + UV), agarose gel; format: biochemical; settings: for supercoiled (SC) form of pBR322 DNA: H2O2 + UV; for DNA damage inhibition IC50: pBR322 DNA + H2O2 + UV, mean ± SD of three experiments
Description: The assay was performed using the method described by Habib et al.[17]. Briefly, 6 μL of 30% H2O2 was added to an Eppendorf tube with a volume of 20 μL containing 6 μL of PBS buffer, 0.2 μg of pBR322 DNA in 2 μL of 50 mM PBS (pH 7.4), and 4 μL of samples. The reactions were initiated by UV irradiation and sustained for 5 min on the surface of a UV transilluminator TFM-26 (UVP, Upland, CA, USA), with an intensity of […] at 312 nm at room temperature. At the end of the reaction, the samples were run on 0.8% agarose. […] Vitamin C and Rutin were used as positive controls.

[5] = biological target: T1, Porcine α-amylase (Sus scrofa, UniProt P00690); assay: Porcine α-amylase inhibition assay; format: biochemical; settings: mean ± SD of three experiments
T1 sequence (P00690 16-511): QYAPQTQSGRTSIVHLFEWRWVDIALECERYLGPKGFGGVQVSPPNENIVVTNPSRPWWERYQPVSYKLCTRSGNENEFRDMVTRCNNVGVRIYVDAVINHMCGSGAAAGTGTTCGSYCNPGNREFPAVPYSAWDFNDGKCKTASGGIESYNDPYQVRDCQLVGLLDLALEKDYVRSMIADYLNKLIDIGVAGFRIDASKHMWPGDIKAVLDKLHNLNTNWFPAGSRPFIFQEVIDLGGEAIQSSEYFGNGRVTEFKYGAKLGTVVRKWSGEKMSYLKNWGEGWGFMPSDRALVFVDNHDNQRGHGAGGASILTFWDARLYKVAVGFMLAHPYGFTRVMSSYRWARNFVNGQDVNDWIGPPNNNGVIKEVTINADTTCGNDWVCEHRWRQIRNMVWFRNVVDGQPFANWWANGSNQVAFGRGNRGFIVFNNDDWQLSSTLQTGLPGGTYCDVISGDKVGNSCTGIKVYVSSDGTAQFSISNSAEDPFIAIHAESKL
Description: Inhibition of porcine α-amylase activity was described by Habib et al.[17]. […] For 10 min, the mixture was incubated at 25 °C, and then 50 µL 1% starch solution in 20 mM sodium phosphate buffer at pH 6.9 with 6 mM NaCl was added. The mixture was incubated at 25 °C, followed by addition of a color reagent (1 mL dinitrosalicylic acid). To stop the reaction, the mixture was kept for 10 min in a water bath at 100 °C and then cooled to 25 °C. 1 mL of deionized water was added, and the absorbance was read at 540 nm using a 96-well microplate reader. Inhibition of porcine α-amylase was estimated using Eq. (1) as described above.

[6] = ABTS free radical-scavenging assay; format: biochemical; settings: for ABTS IC50: concentration that scavenges free radicals by 50%, mean ± SD of three experiments
Description: Determination was conducted based on the method reported by Platat et al.[62]. The results were expressed as the percentage of ABTS^· radical inhibition calculated using Eq. (1) as described above.

[7] = DPPH free radical-scavenging assay; format: biochemical; settings: concentration that scavenges free radicals by 50%; mean ± SD of three experiments
Description: The estimation was based on the method reported by Habib et al.[61]. The results were expressed as the percentage inhibition of the DPPH^· radical. The percentage of inhibition of DPPH^· radical was calculated using the following equation:1 %ofDPPH^·inhibition=Abscontrol-Abssample/Abscontrol×100
where Abs control is the absorbance of DPPH^· solution without the tested sample.

Structure (SMILES)	percentage inhibition of iron release from ferritin ([1]; at 10 μg) [%]	percentage inhibition of iron release from ferritin ([1]; at 50 μg) [%]	percentage inhibition of iron release from ferritin ([1]; at 100 μg) [%]	Labile Iron IC50 [1] [µg/mL]	Tyrosinase IC50 [2] [µg/mL]	Fragmentation of BSA reduced by ([3]; at 0.1 mg/mL) [%]	Fragmentation of BSA reduced by ([3]; at 5 mg/mL) [%]	BSA damage inhibition IC50 ([3]; BSA + AAPH, mean ± SD of three experiments) [µg/mL]	supercoiled (SC) form of pBR322 DNA ([4]; at 0.1 mg/mL) [%]	supercoiled (SC) form of pBR322 DNA ([4]; at 5 mg/mL) [%]	DNA damage inhibition IC50 [4] [µg/mL]	IC50 [5] [µM]	ABTS scavenging ([6]; at 0.1 mg/mL) [%]	ABTS scavenging ([6]; at 5 mg/mL) [%]	ABTS IC50 [6] [µg/mL]	Porcine α-amylase IC50 [5] [µg/mL]	DPPH IC50 [7] [µg/mL]
O=C(O)c1cc(O)c(O)c(O)c1 [Gallic acid]	50.68 ± 0.18	59.22 ± 0.81	68.55 ± 0.38	4.86 ± 0.23	–	–	–	–	–	–	–	–	–	–	–	–	–
C[C@@H]1O[C@@H](OC[C@H]2O[C@@H](Oc3c(-c4ccc(O)c(O)c4)oc4cc(O)cc(O)c4c3=O)[C@H](O)[C@@H](O)[C@@H]2O)[C@H](O)[C@H](O)[C@H]1O [Rutin]	85.32 ± 0.56	90.30 ± 0.01	96.65 ± 0.01	0.08 ± 0.14	72.08 ± 0.54	94.12 ± 0.20	99.10 ± 0.24	4.42 ± 0.24	13.50 ± 0.52	66.50 ± 0.57	2.45 ± 0.13	130	48.10 ± 0.07	90.13 ± 0.04	6.31 ± 1.00	–	–
Cc1c(C)c2c(c(C)c1O)CCC(C)(C(=O)O)O2 (centres unmarked) [Trolox]	39.33 ± 0.54	84.79 ± 3.00	87.87 ± 1.87	12.57 ± 0.64	–	–	–	–	–	–	–	–	–	–	–	–	–
O=C1O[C@H]([C@@H](O)CO)C(O)=C1O [VC, vitamin C]	–	–	–	–	42.74 ± 0.23	–	–	–	11.50 ± 0.63	19.10 ± 0.91	42.03 ± 1.06	–	88.29 ± 0.22	92.69 ± 0.32	0.68 ± 0.12	87.24 ± 0.71	880 ± 0.52
